Data from patent US8987248B2, “Substituted piperidines as Par-1 antagonists” (Bayer Intellectual Property GmbH, priority 2009, dated 2015).
pIC50: −log10 of the molar value. Structures can show the parent of a compound that is named as a salt.

Molecular target: human protease activated receptor 1 (PAR-1) (Homo sapiens (Human), UniProt P25116)
Assay: Cellular, functional in vitro test (aequorin luminescence, calcium release in recombinant HEK293 PAR-1 test cell)
Assay type: cell-based
Settings: HEK293-derived PAR-1 test cell line expressing aequorin; PAR-1 agonist added at its EC50, 5 min after test substance
Description: 1.a) Cellular, Functional In Vitro Test
A recombinant cell line is used to identify […] of the human protease activated receptor 1 (PAR-1) and to quantify the activity of the substances described herein. The cell is originally derived from a human embryonal kidney cell (HEK293; ATCC: American Type Culture Collection, Manassas, Va. 20108, USA). The test cell line constitutively expresses a modified form of the calcium-sensitive photoprotein aequorin which, after reconstitution with the cofactor coelenterazine, emits light when the free calcium concentration in the inner mitochondrial compartment is increased (Rizzuto R, Simpson A W, Brini M, Pozzan T.; Nature 1992, 358, 325-327). Additionally, the cell stably expresses the endogenous human PAR-1 receptor and the endogenous purinergic receptor P2Y2. The resulting PAR-1 test cell responds to stimulation of the endogenous PAR-1 or P2Y2 receptor with an intracellular release of calcium ions, which can be quantified through resulting aequorin luminescence with a suitable luminometer (Milligan G, Marshall F, Rees S, Trends in Pharmacological Sciences 1996, 17, 235-237).
For the testing of the substance specificity, the effect thereof after activation of the endogenous PAR-1 receptor is compared with the effect after activation of the endogenous purinergic P2Y2 receptor which utilizes the same intracellular signal path.
Two days (48 hours) before the assay, the cells are plated out in culture medium (DMEM F12, supplemented with 10% FCS, 2 mM glutamine, 10 mM HEPES, 1.4 mM pyruvate, 0.1 mg/ml gentamycin, 0.15% Na bicarbonate; BioWhittaker Cat. #BE04-687Q; B-4800 Verviers, Belgium) in 384-well microtitre plates and kept in a cell incubator (96% humidity, 5% v/v CO2, 37° C.). On the day of the test, the culture medium is replaced by a tyrode solution (in mM: 140 sodium chloride, 5 potassium chloride, 1 magnesium chloride, 2 calcium chloride, 20 glucose, 20 HEPES), which additionally contains the cofactor coelenterazine (25 μM) and glutathione (4 mM), and the microtitre plate is then incubated for a further 3-4 hours. The test substances are then pipetted onto the microtitre plate, and 5 minutes after the transfer of the test substances into the wells of the microtitre plate the plate is transferred into the luminometer, a PAR-1 agonist concentration which corresponds to the EC50 is added and the resulting light signal is immediately measured in the luminometer. To distinguish an antagonist substance action from a toxic action, the endogenous purinergic receptor is immediately subsequently activated with agonist (ATP, final concentration 10 μM) and the resulting light signal is measured.

Chain of human protease activated receptor 1 (PAR-1) (P25116 22-425): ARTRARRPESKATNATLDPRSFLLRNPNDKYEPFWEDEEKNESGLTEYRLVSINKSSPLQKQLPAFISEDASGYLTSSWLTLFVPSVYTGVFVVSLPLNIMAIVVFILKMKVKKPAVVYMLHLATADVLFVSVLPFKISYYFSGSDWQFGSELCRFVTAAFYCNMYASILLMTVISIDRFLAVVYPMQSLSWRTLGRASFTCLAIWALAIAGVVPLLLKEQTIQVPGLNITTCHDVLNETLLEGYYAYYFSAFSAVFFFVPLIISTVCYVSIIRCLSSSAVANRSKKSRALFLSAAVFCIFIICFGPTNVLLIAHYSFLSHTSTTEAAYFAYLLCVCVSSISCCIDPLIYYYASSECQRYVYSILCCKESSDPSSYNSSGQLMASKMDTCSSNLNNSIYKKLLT

Row | SMILES | pIC50
1 | CCc1ccc(C2CC(C(=O)Nc3ccccc3)CN(C(=O)C(C)(C)CF)C2)cc1 (racemic) [Example 7, 5-(4-Ethylphenyl)-1-(3-fluoro-2,2-dimethylpropanoyl)-N-phenylpiperidine-3-carboxamide] | 7.54
2 | O=C(NC1CC(c2ccc(C(F)(F)F)cc2)CN(C(=O)N2CCC(O)CC2)C1)C1CCCC1 (single isomer, unassigned) [Example 177, N-{1-[(4-Hydroxypiperidin-1-yl)carbonyl]-5-[4-(trifluoromethyl)phenyl]piperidin-3-yl}cyclopentanecarboxamide] | 7.09
3 | O=C(NC1CC(c2ccc(C(F)(F)F)cc2)CN(C(=O)N2CCS(=O)(=O)CC2)C1)c1ccccc1 (racemic) [Example 134, N-{1-[(1,1-Dioxidothiomorpholin-4-yl)carbonyl]-5-[4-(trifluoromethyl)phenyl]piperidin-3-yl}-benzenecarboxamide] | 7.81
4 | CCc1ccc(C2CC(NC(=O)N(C)c3ccccc3)CN(C(=O)C3CCCC3)C2)cc1 (racemic) [Example 95, 3-[1-(Cyclopentylcarbonyl)-5-(4-ethylphenyl)piperidin-3-yl]-1-methyl-1-phenylurea] | 6.63
5 | Cc1ccc(C2CC(NC(=O)c3ccccc3)CN(C(=O)C3(N)CCC3)C2)cc1C (racemic) [Example 119, N-{1-[(1-Aminocyclobutyl)carbonyl]-5-(3,4-dimethylphenyl)piperidin-3-yl}benzenecarboxamide hydrochloride] | 7.80
6 | O=C(NC1CC(c2ccc(C(F)(F)F)cc2)CN(C(=O)N2CCC(O)CC2)C1)c1ccccc1 (racemic) [Example 129, N-{1-[(4-Hydroxypiperidin-1-yl)carbonyl]-5-[4-(trifluoromethyl)phenyl]piperidin-3-yl}benzenecarboxamide] | 7.47
7 | O=C(NC1CC(c2ccc(OC(F)(F)F)cc2)CN(C(=O)c2ccncc2)C1)c1ccccc1 (single isomer, unassigned) [Example 115, N-{1-(Pyridin-4-ylcarbonyl)-5-[4-(trifluoromethoxy)phenyl]piperidin-3-yl}benzenecarboxamide] | 7.95
8 | O=C(NC1CC(c2ccc(C(F)(F)F)cc2)CN(C(=O)N2CCOCC2)C1)c1ccccc1 (single isomer, unassigned) [Example 128, N-{1-(Morpholin-4-ylcarbonyl)-5-[4-(trifluoromethyl)phenyl]piperidin-3-yl}benzenecarboxamide] | 7.77
9 | N#CC1CCN(C(=O)N2CC(NC(=O)C3CCCC3)CC(c3ccc(C(F)(F)F)cc3)C2)CC1 (single isomer, unassigned) [Example 178, N-{1-[(4-Cyanopiperidin-1-yl)carbonyl]-5-[4-(trifluoromethyl)phenyl]piperidin-3-yl}cyclopentanecarboxamide] | 7.20
10 | CCc1ccc(C2CC(C(=O)Nc3ccccc3)CN(C(=O)c3scnc3C)C2)cc1 (racemic) [Example 36] | 7.01
11 | O=C1CN(C(=O)N2CC(NC(=O)c3ccccc3)CC(c3ccc(C(F)(F)F)cc3)C2)CCN1 (racemic) [Example 141, N-{1-[(3-Oxopiperazin-1-yl)carbonyl]-5-[4-(trifluoromethyl)phenyl]piperidin-3-yl}benzenecarboxamide] | 7.27
12 | CCc1ccc(C2CC(NC(=O)Nc3ccccc3)CN(C(=O)N3CCCC3)C2)cc1 (racemic) [Example 91, N-[5-(4-Ethylphenyl)-1-(pyrrolidin-1-ylcarbonyl)piperidin-3-yl]-3-phenylurea] | 7.76
13 | O=C(NC1CC(c2ccc(C(F)(F)F)cc2)CN(C(=O)N2CCC(O)CC2)C1)C1CCCC1 (racemic) [Example 170, N-{1-[(4-Hydroxypiperidin-1-yl)carbonyl]-5-[4-(trifluoromethyl)phenyl]piperidin-3-yl}cyclopentanecarboxamide] | 7.67
14 | Cc1cccc(C(=O)NC2CC(c3ccc(C(F)(F)F)cc3)CN(C(=O)N3CCOCC3)C2)n1 (racemic) [Example 162] | 7.60
15 | CCc1ccc(C2CC(NC(=O)c3ccc(-c4cccc(C(F)(F)F)c4)cn3)CN(C(=O)C3CCCC3)C2)cc1 (racemic) [Example 83, N-[1-(Cyclopentylcarbonyl)-5-(4-ethylphenyl)piperidin-3-yl]-5-[3-(trifluoromethyl)phenyl]pyridine-2-carboxamide] | 7.71
16 | CCc1ccc(C2CC(C(=O)Nc3ccccc3)CN(C(=O)C3(CC)COC3)C2)cc1 (racemic) [Example 18] | 6.32
17 | CCc1ccc(C2CC(C(=O)Nc3ccccc3)CN(C(=O)CCOC)C2)cc1 (racemic) [Example 8, 5-(4-Ethylphenyl)-1-(3-methoxypropanoyl)-N-phenylpiperidine-3-carboxamide] | 6.96
18 | C[C@@H]1CC[C@@H](C)N1C(=O)N1CC(NC(=O)c2ccccc2)CC(c2ccc(C(F)(F)F)cc2)C1 (mixture of isomers) [Example 133, N-(1-{[(2R,5R)-2,5-Dimethylpyrrolidin-1-yl]carbonyl}-5-[4-(trifluoromethyl)phenyl]piperidin-3-yl)benzenecarboxamide] | 7.84
19 | CCc1ccc(C2CC(NS(=O)(=O)Cc3ccccc3)CN(C(=O)C3CCCC3)C2)cc1 (racemic) [Example 104, N-[1-(Cyclopentylcarbonyl)-5-(4-ethylphenyl)piperidin-3-yl]-1-phenylmethanesulphonamide] | 6.61
20 | CCc1ccc(C2CC(NC(=O)OC)CN(C(=O)N3CCOCC3)C2)cc1 (racemic) [Example 102, Methyl [5-(4-ethylphenyl)-1-(morpholin-4-ylcarbonyl)piperidin-3-yl]carbamate] | 6.78
21 | CCc1ccc(C2CC(NC(=O)C(C)(C)C)CN(C(=O)C3CCCC3)C2)cc1 (racemic) [Example 90, N-[1-(Cyclopentylcarbonyl)-5-(4-ethylphenyl)piperidin-3-yl]-2,2-dimethylpropanamide] | 6.44
